Source: patent US9089509B2, “Method of treatment of age-related macular degeneration” (YEDA RESEARCH AND DEVELOPMENT CO., LTD., priority 2006, dated 2015)

Experiments:
[1] = test system: Tg-AD mice (APPK595N, M596L+PS1ΔE9); assay: Cop-1 vaccination of Tg-AD mice: Aβ plaques, microglial phenotype and T cells in hippocampus (immunohistochemistry); type: in vivo, mouse
Experimental: For immunohistochemistry, tissue sections were treated with a permeabilization/blocking solution containing 10% FCS, 2% bovine serum albumin, 1% glycine, and 0.05% Triton X-100 (Sigma-Aldrich, St. Louis). Tissue sections were stained overnight at 4° C. with specified combinations of the following primary antibodies: rat anti-BrdU (1:200; Oxford Biotechnology, Kidlington, Oxfordshire, UK), goat anti-doublecortin (anti-DCX) (1:400; Santa Cruz Biotechnology, Santa Cruz, Calif.), and mouse anti-neuronal nuclear protein (anti-NeuN) (1:200; Chemicon). Secondary antibodies were FITC-conjugated donkey anti-goat, Cy-3-conjugated donkey anti-mouse, and Cy-3- or Cy-5-conjugated donkey anti-rat (1:200; Jackson ImmunoResearch, West Grove, Pa.). CD11b (MAC1; 1:50; BD—Pharmingen) or FITC-conjugated 113-4 was used for labeling of microglia. Anti-MHC-II Abs (rat, clone IBL-5/22; 1:50) was used to detect expression of cell-surface MHC-II proteins. To detect expression of CD11c hamster anti-CD11c (1:100; eBioscience, San Diego, Calif.) was used. Anti-Aβ (human amino-acid residues 1-17) (mouse, clone 6E10; Chemicon) was used to detect expression of human Aβ. Expression of IGF-I was detected by goat anti-IGF-I Abs (1:20; R&D Systems). Expression of TNF-α was detected by goat anti-TNF-α Abs (1:100; R&D Systems). T cells were detected with anti-CD3 polyclonal Abs (rabbit, 1:100; DakoCytomation, CA). Propidium iodide (1 μg/ml; Molecular Probes, Invitrogen, Carlsbad, Calif.), was used for nuclear staining.
Nineteen adult double-transgenic APPK595N, M596L+PS1ΔE9 mice of the B6C3-Tg (APPswe, PSEN1dE9) 85 Dbo/J strain (Borchelt et al., 1997) were purchased from The Jackson Laboratory (Bar Harbor, Me.) and were bred and maintained in the Animal Breeding Center of The Weizmann Institute of Science. All animals were handled according to the regulations formulated by the Weizmann Institute's Animal Care and Use Committee, and all experiments and procedures were approved by the Weizmann Institute's Animal Care and Use Committee.
(§1) Each mouse was subcutaneously injected five times with a total of 100 μg of high-molecular-weight (TV-5010 DS, from batch no. 486220205; Teva Pharmaceutical Industries, Petach Tikva, Israel) emulsified in 200 μl PBS, from experimental day 0 until day 24, twice during the first week and once a week thereafter.
(§2) For in-vivo experiments, the numbers of Aβ plaques and CD11b^+ microglia in the hippocampus were counted at 300-μm intervals in 6-8 coronal sections (30 μm) from each mouse. Neurogenesis in the dentate gyrus was evaluated by counting of pre-mature neurons (DCX^+), proliferating cells (BrdU^+), and newly formed mature neurons (BrdU^+/NeuN^+) in six coronal sections (370 μm apart) per mouse brain. To obtain an estimate of the total number of labeled cells per dentate gyrus, the total number of cells counted in the selected coronal sections from each brain was multiplied by the volume index (the ratio between the volume of the dentate gyrus and the total combined volume of the selected sections). Specificity of BrdU+/NeuN+ co-expression was assayed using the confocal microscope (LSM 510) in optical sections at 1-μm intervals. Quantification of CD3^+, CD11b^+ and CD11c^+ cells were analyzed from 30-50 Aβ-plaques of each mouse tested in this study. Cell counts, numbers of Aβ plaques, plaque areas, and intensity of NeuN staining per unit area in the dentate gyrus were evaluated automatically using Image-Pro Plus 4.5 software (Media Cybernetics, Carlsbad, Calif.).
We verified the presence of both transgenes in each mouse by PCR amplification of genomic DNA. Tg-AD mice aged approximately 8 months were then vaccinated subcutaneously with Cop-1 (n=6) twice during the first week and once a week thereafter. Age-matched untreated Tg-AD mice (n=7) and non-Tg littermates (n=6) served, respectively, as untreated-Tg and wild-type controls. Seven weeks after the first Cop-1 injection all the mice were euthanized and analyzed. […]

[2] = test system: retinal ganglion cells (RGCs); settings: cited from earlier work
[3] = test system: Tg-AD mice (APPK595N, M596L+PS1ΔE9); assay: Morris water maze (MWM) spatial learning/memory in Cop-1-vaccinated Tg-AD mice; type: in vivo, mouse; settings: acquisition and reversal tasks (FIGS. 7A-7B)
Experimental: as §1
Spatial learning/memory was assessed by performance on a hippocampus-dependent visuo-spatial learning task in the Morris water maze (MWM) and carried out as described (Lichtenwalner et al., 2001).
MWM behavior scores were analyzed using […]. Treatment group and trial block were used as sources of variation to evaluate the significance of differences between mean scores during acquisition trial blocks in the MWM.
Two weeks before the end of the experiment, all mice were tested in a Morris water maze (MWM) for cognitive activity, as reflected by their performance of a hippocampus-dependent spatial learning/memory task. […] Differences in cognitive performance were manifested in both the acquisition (FIG. 7A) and the reversal tasks (FIG. 7B).

[4] = test system: Tg-AD mice (APPK595N, M596L+PS1ΔE9); assay: Cop-1 vaccination of Tg-AD mice: neurogenesis in hippocampal dentate gyrus (BrdU, NeuN, DCX); type: in vivo, mouse
Experimental: For BrdU staining, sections were washed with PBS and incubated in 2N HCl at 37° C. for 30 min. Sections were blocked for 1 h with blocking solution [PBS containing 20% normal horse serum and 0.1% Triton X-100, or PBS containing mouse immunoglobulin blocking reagent obtained from Vector Laboratories (Burlingame, Calif.)].
For immunohistochemistry, tissue sections were treated with a permeabilization/blocking solution containing 10% FCS, 2% bovine serum albumin, 1% glycine, and 0.05% Triton X-100 (Sigma-Aldrich, St. Louis). Tissue sections were stained overnight at 4° C. with specified combinations of the following primary antibodies: rat anti-BrdU (1:200; Oxford Biotechnology, Kidlington, Oxfordshire, UK), goat anti-doublecortin (anti-DCX) (1:400; Santa Cruz Biotechnology, Santa Cruz, Calif.), and mouse anti-neuronal nuclear protein (anti-NeuN) (1:200; Chemicon). […] Expression of IGF-I was detected by goat anti-IGF-I Abs (1:20; R&D Systems). Expression of TNF-α was detected by goat anti-TNF-α Abs (1:100; R&D Systems). T cells were detected with anti-CD3 polyclonal Abs (rabbit, 1:100; DakoCytomation, CA). […]
as §2, with “Specificity of BrdU+/NeuN+ co-expression was assayed using the confocal microscope (LSM 510) in optical sections at 1-μm intervals.” left out, “Cell counts, numbers of Aβ plaques, plaque areas, and intensity of NeuN staining per unit area in the dentate gyrus were evaluated automatically using Image-Pro Plus 4.5 software (Media Cybernetics, Carlsbad, Calif.).” left out

[5] = vaccinated Tg-AD mice (FIG. 2D)

For glatiramer acetate [Cop-1], which “Aβ plaques in brain cryosections stained for human Aβ” value ([1]; s.c. vaccination, seven weeks after first injection, vs untreated Tg-AD mice (FIG. 2A)) is on record?
The value was “very few”.

And the “MHC-II expression by microglia adjacent to residual Aβ plaques” value [1, 5]?
The value was “most of the microglia adjacent to residual Aβ plaques expressed MHC-II”.

What about the “TNF-α expression by microglia adjacent to residual Aβ plaques” value [1, 5] of the same substance?
Its value is “hardly any of them expressed TNF-α”.

What about the “IGF-I expression by MHC-II+ microglia” value ([1]; vaccinated Tg-AD mice (FIG. 2F)) of the same substance?
The value was “found to express IGF-I”.

What about the “CD11b+ cells that became CD11b+/CD11c+ cells (associated with Aβ-plaque)” value ([1]; vaccinated Tg-AD mice, 25% in untreated Tg-AD mice (FIG. 3C)) of the same substance?
The value was 87%.

And the “NeuN+ staining in hippocampal CA1 and dentate gyrus” value ([1]; vaccinated Tg-AD mouse relative to non-Tg littermate (FIG. 2A))?
Its value is “almost normal”.

What about the “area occupied by the plaques (Aβ-immunoreactivity)” value ([1]; vs age-matched untreated Tg-AD mice (FIG. 2J)) of the same substance?
Its value is “significantly smaller”.

What about the “total number of Aβ-plaques (30-μm hippocampal slice)” value ([1]; vs untreated Tg-AD mice (FIG. 2I)) of the same substance?
Its value is “significantly fewer plaques”.

And the “CD11b+ microglia in hippocampus” value ([1]; vs untreated Tg-AD mice (FIG. 2K))?
Its value is “significantly fewer”.

What about the “T cells (CD3+) associated with Aβ-plaque” value ([1]; vs untreated Tg-AD mice (FIG. 2L)) of the same substance?
The value was “significantly more”.

What about the “number of CD11b+ cells associated with Aβ-plaque” value ([1]; vs untreated Tg-AD mice (FIG. 3B)) of the same substance?
The value was “significantly decreased”.

What about the “outcome of weekly administration of adjuvant-free agent” value ([2]; model of chronically elevated intraocular pressure (Bakalash et al., 2005)) of the same substance?
The value was “neuroprotection”.

What about the RGC loss ([2]; rat model of chronically high intraocular pressure, vaccination) of the same substance?
Its RGC loss is “significantly reduces RGC loss”.

And the “MWM performance vs non-Tg littermates” value [3]?
The value was “did not differ significantly”.

What about the “MWM performance vs untreated-Tg-AD mice” value [3] of the same substance?
Its value is “superior to that of the untreated-Tg-AD mice”.

And the “newly formed mature neurons (BrdU+/NeuN+) in dentate gyrus” value ([4]; compared to non-Tg littermates (FIG. 6B))?
The value was “similar”.

What about the “pre-mature neurons (DCX+ cells) in dentate gyri” value ([4]; relative to non-Tg littermates (FIG. 6C)) of the same substance?
Its value is “slightly but significantly more”.

And the “proliferating cells (BrdU+) in dentate gyrus” value ([4]; vs untreated-Tg counterparts (FIG. 6A))?
The value was “significantly more”.
